From patent EP3046573B1, “AMYLIN ANALOGUES” (Zealand Pharma A/S, priority 2013, dated 2015)
pEC50: −log10 of the molar value. Like-named read-outs stand apart in the source and are kept apart here. Numbered stars: 1 amine (or outer) side, 2 acyl side, 3 side chain; on linkers, the order of the positions; unused ones are H or OH. Bridge positions count the residues as written; N and C are the ends. Square brackets hold non-standard residues; d marks the D form. Peptide text beside a SMILES is read from it. * marks the point of attachment. C20 diacid = O=C(O)CCCCCCCCCCCCCCCCCCC(=O)*; γGlu = O=C(O)[C@H](CCC(=O)[*:2])N[*:1]; NMeI = CC[C@H](C)[C@H](NC)C(=O)O; Sar = CNCC(=O)O

Columns and labels:
[1] = biological target: T1, human amylin receptor 3 (hAMYR3) consisting of hCTR2 co-expressed with human Receptor Activity Modifying Protein 3 (hRAMP3) (Homo sapiens, UniProt O60896+P30988); assay: hAMYR3 assay: induction of cAMP (AlphaScreen cAMP Assay kit) in COS7 cells expressing hAMYR3; assay type: cell-based
T1 construct: expressed in transfected cells
T1 sequence (P30988 25-474): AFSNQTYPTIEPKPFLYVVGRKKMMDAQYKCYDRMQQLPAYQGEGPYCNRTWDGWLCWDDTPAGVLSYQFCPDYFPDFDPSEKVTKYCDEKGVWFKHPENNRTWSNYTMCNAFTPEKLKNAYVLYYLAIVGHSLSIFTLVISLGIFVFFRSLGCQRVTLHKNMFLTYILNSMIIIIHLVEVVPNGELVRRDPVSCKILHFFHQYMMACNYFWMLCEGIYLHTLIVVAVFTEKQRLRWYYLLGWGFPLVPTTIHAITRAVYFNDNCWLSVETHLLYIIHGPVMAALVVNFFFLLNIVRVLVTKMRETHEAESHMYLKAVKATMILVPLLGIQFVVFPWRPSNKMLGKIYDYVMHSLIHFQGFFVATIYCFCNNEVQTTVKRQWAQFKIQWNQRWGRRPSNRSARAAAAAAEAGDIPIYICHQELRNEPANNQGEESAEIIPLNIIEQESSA
T1 sequence (O60896 24-148 partner): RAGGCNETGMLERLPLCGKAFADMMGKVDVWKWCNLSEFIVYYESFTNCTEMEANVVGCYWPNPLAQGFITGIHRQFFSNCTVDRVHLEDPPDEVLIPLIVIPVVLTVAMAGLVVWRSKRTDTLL
In short: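 cAMP accumulation read by AlphaScreen in lysates of RAMP-naive COS7 cells stably transfected with hCTR2 plus hRAMP3. Cells exposed to peptide dilutions for 15 min, 37° C, with 100 µM IBMX; 4PL fitting gave EC50 and efficacy relative to pramlintide.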

[2] = Solubility assessment (turbidity absorbance at 325 nm); assay type: physicochemical; conditions: stock 2 mg/ml diluted 1:1, ambient temperature (typically 25°C), n=1; for Solubility, Acetate buffer pH 4: 100 mM acetate buffer pH 4.0; for Solubility, Acetate buffer pH 5: 100 mM acetate buffer pH 5.0; for Solubility, Histidine buffer pH 6: 100 mM histidine buffer pH 6.0; for Solubility, Histidine buffer pH 7: 100 mM histidine buffer pH 7.0; for Solubility, Phosphate buffer pH 6: 100 mM phosphate buffer pH 6.0; for Solubility, Phosphate buffer pH 7: 100 mM phosphate buffer pH 7.0; for Solubility, Phosphate buffer pH 7.5: 100 mM phosphate buffer pH7.5
In short: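 Turbidimetric screen across pH 4.0–7.5 in 100 mM acetate, histidine and phosphate buffers. A 2 mg/ml peptide stock (pH 2.5) was diluted 1:1 into each, then A325 measured at ambient temperature; values ≤ 0.02 AU denoted solubility of 1 mg/ml or more.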

[3] = biological target: T2, human calcitonin receptor (hCTR2) (Homo sapiens, UniProt P30988); assay: hCTR2 assay: induction of cAMP (AlphaScreen cAMP Assay kit) in COS7 cells expressing hCTR2; assay type: cell-based
T2 construct: expressed in transfected cells
T2 sequence (P30988 25-474): T1 sequence (P30988 25-474)
In short: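 cAMP read-out by AlphaScreen after cell lysis; EC50 and % efficacy vs pramlintide from 4-parameter logistic fitting. Agonist stimulation: hCTR2-COS7 stable cells, 15 min, 37° C, 100 µM IBMX, 0.1% casein, Tyrode/HEPES pH 7.4.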

[4] = cAMP induction in COS7 cells expressing hCTR2, average of a minimum of 3 determinations, read-out: hCTR2 EC50

SMILES	pEC50 [1]	Solubility, Acetate buffer pH 4 [2]	Solubility, Acetate buffer pH 5 [2]	Solubility, Histidine buffer pH 6 [2]	Solubility, Histidine buffer pH 7 [2]	Solubility, Phosphate buffer pH 6 [2]	Solubility, Phosphate buffer pH 7 [2]	Solubility, Phosphate buffer pH 7.5 [2]	pEC50 [3, 4]	pEC50 [3]	pEC50 ([1]; cAMP induction in COS7 cells expressing hAMYR3, average of a minimum of 3 determinations, read-out: hAMY R3 EC50)
CC[C@H](C)[C@@H](C(=O)N[C@@H](CC(C)C)C(=O)N[C@@H](CO)C(=O)N[C@@H](CO)C(=O)N[C@H](C(=O)N[C@@H](CCC(=O)O)C(=O)N[C@H](C(=O)NCC(=O)N[C@@H](CO)C(=O)N[C@@H](CCC(=O)O)C(=O)N[C@H](C(=O)N1CCC[C@H]1C(N)=O)[C@@H](C)O)C(C)C)[C@@H](C)O)N(C)C(=O)[C@H](C)NC(=O)CN(C)C(=O)[C@H](Cc1ccccc1)NC(=O)[C@H](CO)NC(=O)[C@H](CO)NC(=O)[C@H](CO)NC(=O)[C@H](CO)NC(=O)[C@H](CCCNC(=N)N)NC(=O)[C@H](Cc1c[nH]cn1)NC(=O)[C@H](CC(C)C)NC(=O)[C@H](Cc1ccccc1)NC(=O)[C@H](CCC(=O)O)NC(=O)[C@H](C)NC(=O)[C@H](CC(C)C)NC(=O)[C@H](CCCNC(=N)N)NC(=O)[C@H](CCC(N)=O)NC(=O)[C@@H](NC(=O)[C@H](C)NC(=O)[C@@H]1CSSC[C@H](NC(=O)[C@H](CCCNC(=N)N)NC(=O)CC[C@H](NC(=O)CCCCCCCCCCCCCCCCCCC(=O)O)C(=O)O)C(=O)NCC(=O)N[C@@H]([C@@H](C)O)C(=O)N[C@@H](C)C(=O)N[C@@H]([C@@H](C)O)C(=O)N1)[C@@H](C)O [Compound 130, [19CD]-isoGlu-RC()GTATC()ATQRLAEFLHRSSSSF-Gly(Me)-A-Ile(Me)-LSSTEVGSETP-NH2] ({C20 diacid-γGlu}-RCGTATCATQRLAEFLHRSSSSF[Sar]A[NMeI]LSSTEVGSETP-NH2; disulfide 2-7)	9.82	SS (SS indicates solubility ≥ 1mg/ml)	SS (SS indicates solubility ≥ 1mg/ml)	SS (SS indicates solubility ≥ 1mg/ml)	SS (SS indicates solubility ≥ 1mg/ml)	SS (SS indicates solubility ≥ 1mg/ml)	SS (SS indicates solubility ≥ 1mg/ml)	SS (SS indicates solubility ≥ 1mg/ml)	9.96	–	–
CC[C@H](C)[C@@H](C(=O)N[C@@H](CC(C)C)C(=O)N[C@@H](CO)C(=O)N[C@@H](CO)C(=O)N[C@H](C(=O)N[C@@H](CC(N)=O)C(=O)N[C@H](C(=O)NCC(=O)N[C@@H](CO)C(=O)N[C@@H](CC(N)=O)C(=O)N[C@H](C(=O)N[C@H](C(N)=O)C(C)C)[C@@H](C)O)C(C)C)[C@@H](C)O)N(C)C(=O)[C@H](C)NC(=O)CN(C)C(=O)[C@H](Cc1ccccc1)NC(=O)[C@H](CC(N)=O)NC(=O)[C@H](CC(N)=O)NC(=O)[C@H](CO)NC(=O)[C@H](CO)NC(=O)[C@H](CCCNC(=N)N)NC(=O)[C@H](Cc1c[nH]cn1)NC(=O)[C@H](CC(C)C)NC(=O)[C@H](Cc1ccccc1)NC(=O)[C@H](CCC(=O)O)NC(=O)[C@H](C)NC(=O)[C@H](CC(C)C)NC(=O)[C@H](CCCNC(=N)N)NC(=O)[C@H](CCC(N)=O)NC(=O)[C@@H](NC(=O)[C@H](C)NC(=O)[C@@H]1CSSC[C@H](NC(=O)[C@H](CCCNC(=N)N)NC(=O)CC[C@H](NC(=O)CCCCCCCCCCCCCCCCCCC(=O)O)C(=O)O)C(=O)N[C@@H](CC(N)=O)C(=O)N[C@@H]([C@@H](C)O)C(=O)N[C@@H](C)C(=O)N[C@@H]([C@@H](C)O)C(=O)N1)[C@@H](C)O [Compound 98, [19CD]-isoGlu-RC()NTATC()ATQRLAEFLHRSSNNF-Gly(Me)-A-Ile(Me)-LSSTNVGSNTV-NH2] ({C20 diacid-γGlu}-RCNTATCATQRLAEFLHRSSNNF[Sar]A[NMeI]LSSTNVGSNTV-NH2; disulfide 2-7)	8.77	SS (SS indicates solubility ≥ 1mg/ml)	SS (SS indicates solubility ≥ 1mg/ml)	SS (SS indicates solubility ≥ 1mg/ml)	SS (SS indicates solubility ≥ 1mg/ml)	II (II indicates solubility ≤ 1 mg/ml)	SS (SS indicates solubility ≥ 1mg/ml)	SS (SS indicates solubility ≥ 1mg/ml)	–	9.46	–
CC[C@H](C)[C@@H](C(=O)N[C@@H](CC(C)C)C(=O)N[C@@H](CO)C(=O)N[C@@H](CO)C(=O)N[C@H](C(=O)N[C@@H](CC(N)=O)C(=O)N[C@H](C(=O)NCC(=O)N[C@@H](CO)C(=O)N[C@@H](CC(N)=O)C(=O)N[C@H](C(=O)N1CCC[C@@H]1C(N)=O)[C@@H](C)O)C(C)C)[C@@H](C)O)N(C)C(=O)[C@H](C)NC(=O)CN(C)C(=O)[C@H](Cc1ccccc1)NC(=O)[C@H](CC(N)=O)NC(=O)[C@H](CC(N)=O)NC(=O)[C@H](CO)NC(=O)[C@H](CO)NC(=O)[C@H](CCCNC(=N)N)NC(=O)[C@H](Cc1c[nH]cn1)NC(=O)[C@H](CC(C)C)NC(=O)[C@H](Cc1ccccc1)NC(=O)[C@H](CCC(=O)O)NC(=O)[C@H](C)NC(=O)[C@H](CC(C)C)NC(=O)[C@H](CCCNC(=N)N)NC(=O)[C@H](CCC(N)=O)NC(=O)[C@@H](NC(=O)[C@H](C)NC(=O)[C@@H]1CSSC[C@H](NC(=O)[C@H](CCCNC(=N)N)NC(=O)CC[C@H](NC(=O)CCCCCCCCCCCCCCCCCCC(=O)O)C(=O)O)C(=O)N[C@@H](CC(N)=O)C(=O)N[C@@H]([C@@H](C)O)C(=O)N[C@@H](C)C(=O)N[C@@H]([C@@H](C)O)C(=O)N1)[C@@H](C)O [Compound 104, [19CD]-isoGlu-RC()NTATC()ATQRLAEFLHRSSNNF-Gly(Me)-A-Ile(Me)-LSSTNVGSNT-DPro-NH2] ({C20 diacid-γGlu}-RCNTATCATQRLAEFLHRSSNNF[Sar]A[NMeI]LSSTNVGSNT[dP]-NH2; disulfide 2-7)	8.32	SS (SS indicates solubility ≥ 1mg/ml)	SS (SS indicates solubility ≥ 1mg/ml)	SS (SS indicates solubility ≥ 1mg/ml)	SS (SS indicates solubility ≥ 1mg/ml)	II (II indicates solubility ≤ 1 mg/ml)	SS (SS indicates solubility ≥ 1mg/ml)	SS (SS indicates solubility ≥ 1mg/ml)	–	9.15	–
CC[C@H](C)[C@@H](C(=O)N[C@@H](CC(C)C)C(=O)N[C@@H](CO)C(=O)N[C@@H](CO)C(=O)N[C@H](C(=O)N[C@@H](CCC(=O)O)C(=O)N[C@H](C(=O)NCC(=O)N[C@@H](CO)C(=O)N[C@@H](CCC(=O)O)C(=O)N[C@H](C(=O)N1CCC[C@H]1C(N)=O)[C@@H](C)O)C(C)C)[C@@H](C)O)N(C)C(=O)[C@H](C)NC(=O)CN(C)C(=O)[C@H](Cc1ccccc1)NC(=O)[C@H](CO)NC(=O)[C@H](CO)NC(=O)[C@H](CO)NC(=O)[C@H](CO)NC(=O)[C@H](CCCNC(=N)N)NC(=O)[C@H](Cc1c[nH]cn1)NC(=O)[C@H](CC(C)C)NC(=O)[C@H](Cc1ccccc1)NC(=O)[C@H](CCC(=O)O)NC(=O)[C@H](C)NC(=O)[C@H](CC(C)C)NC(=O)[C@H](CCCNC(=N)N)NC(=O)[C@H](CO)NC(=O)[C@@H](NC(=O)[C@H](C)NC(=O)[C@@H]1CSSC[C@H](NC(=O)[C@H](CCCNC(=N)N)NC(=O)CC[C@H](NC(=O)CCCCCCCCCCCCCCCCCCC(=O)O)C(=O)O)C(=O)N[C@@H](CO)C(=O)N[C@@H]([C@@H](C)O)C(=O)N[C@@H](C)C(=O)N[C@@H]([C@@H](C)O)C(=O)N1)[C@@H](C)O [Compound 133, [19CD]-isoGlu-RC()STATC()ATSRLAEFLHRSSSSF-Gly(Me)-A-Ile(Me)-LSSTEVGSETP-NH2] ({C20 diacid-γGlu}-RCSTATCATSRLAEFLHRSSSSF[Sar]A[NMeI]LSSTEVGSETP-NH2; disulfide 2-7)	–	SS (SS indicates solubility ≥ 1mg/ml)	SS (SS indicates solubility ≥ 1mg/ml)	SS (SS indicates solubility ≥ 1mg/ml)	SS (SS indicates solubility ≥ 1mg/ml)	SS (SS indicates solubility ≥ 1mg/ml)	SS (SS indicates solubility ≥ 1mg/ml)	SS (SS indicates solubility ≥ 1mg/ml)	9.52	–	9.44
